Experimental data as given in the NIST ThermoML archive (doi:10.1016/j.jct.2013.10.031).

Assay: wn = mass fraction of the nth substance listed
Conditions: Gas, Burnett expansion method

FCC(F)(F)F [1,1,1,2-tetrafluoroethane] + CCC
Conditions | mass density [kg/m3]
251.84 K, 167.7 kPa, w2 = 0.4 | 9.96073
251.85 K, 201.9 kPa, w2 = 0.4 | 13.2676
251.86 K, 140.8 kPa, w2 = 0.4 | 7.47724
251.88 K, 122.9 kPa, w2 = 0.4 | 5.6131
251.89 K, 177.7 kPa, w2 = 0.45 | 5.82156
251.9 K, 103.2 kPa, w2 = 0.45 | 3.28086
251.9 K, 135.5 kPa, w2 = 0.45 | 4.37034
251.9 K, 231.8 kPa, w2 = 0.45 | 7.75442
252.28 K, 125.8 kPa, w2 = 0.5 | 3.8957
252.28 K, 164.9 kPa, w2 = 0.5 | 5.1893
252.29 K, 95.7 kPa, w2 = 0.5 | 2.9246
252.29 K, 215.3 kPa, w2 = 0.5 | 6.9121
252.3 K, 277.7 kPa, w2 = 0.5 | 9.2069
254.94 K, 147.3 kPa, w2 = 0.65 | 4.0008
254.94 K, 193.1 kPa, w2 = 0.65 | 5.32
254.94 K, 251.7 kPa, w2 = 0.65 | 7.0741
254.95 K, 111.9 kPa, w2 = 0.65 | 3.0009
255.01 K, 161.7 kPa, w2 = 0.55 | 4.7449
255.01 K, 211.6 kPa, w2 = 0.55 | 6.3095
255.01 K, 275.1 kPa, w2 = 0.55 | 8.3897
255.02 K, 122.9 kPa, w2 = 0.55 | 3.5683
255.02 K, 242.1 kPa, w2 = 0.6 | 7.0088
255.03 K, 107.3 kPa, w2 = 0.6 | 2.9809
255.03 K, 141.3 kPa, w2 = 0.6 | 3.9638
255.03 K, 185.5 kPa, w2 = 0.6 | 5.2708
255.79 K, 278.4 kPa, w2 = 0.45 | 9.23624
255.8 K, 213.6 kPa, w2 = 0.45 | 6.93377
255.81 K, 124.4 kPa, w2 = 0.45 | 3.90764
255.81 K, 163.3 kPa, w2 = 0.45 | 5.20515
255.82 K, 214.2 kPa, w2 = 0.4 | 7.34761
255.82 K, 276.5 kPa, w2 = 0.4 | 9.7875
255.83 K, 125 kPa, w2 = 0.4 | 4.14099
255.83 K, 163.9 kPa, w2 = 0.4 | 5.51597
256.28 K, 141.3 kPa, w2 = 0.5 | 4.27286
256.28 K, 185.6 kPa, w2 = 0.5 | 5.69162
256.28 K, 242.9 kPa, w2 = 0.5 | 7.58146
256.28 K, 314.6 kPa, w2 = 0.5 | 10.099
256.29 K, 107.2 kPa, w2 = 0.5 | 3.20772
258.98 K, 181.5 kPa, w2 = 0.65 | 4.8943
258.99 K, 138.2 kPa, w2 = 0.65 | 3.6806
258.99 K, 237.5 kPa, w2 = 0.65 | 6.508
259 K, 308.1 kPa, w2 = 0.65 | 8.6533
259.04 K, 159.4 kPa, w2 = 0.6 | 4.3995
259.04 K, 209.2 kPa, w2 = 0.6 | 5.8501
259.04 K, 273.1 kPa, w2 = 0.6 | 7.7791
259.05 K, 121 kPa, w2 = 0.6 | 3.3086
259.15 K, 246.1 kPa, w2 = 0.55 | 7.2337
259.15 K, 319.6 kPa, w2 = 0.55 | 9.6189
259.16 K, 143 kPa, w2 = 0.55 | 4.0909
259.16 K, 188 kPa, w2 = 0.55 | 5.4398
260.14 K, 233.5 kPa, w2 = 0.45 | 7.48249
260.15 K, 178.4 kPa, w2 = 0.45 | 5.61717
260.16 K, 136 kPa, w2 = 0.45 | 4.21669
260.16 K, 216.7 kPa, w2 = 0.5 | 6.56707
260.16 K, 304 kPa, w2 = 0.45 | 9.96648
260.17 K, 104.4 kPa, w2 = 0.45 | 3.16556
260.18 K, 117.7 kPa, w2 = 0.4 | 3.78056
260.19 K, 155.8 kPa, w2 = 0.4 | 5.03578
260.19 K, 265.9 kPa, w2 = 0.4 | 8.93493
260.2 K, 125.4 kPa, w2 = 0.5 | 3.70054
260.2 K, 165.1 kPa, w2 = 0.5 | 4.92963
260.21 K, 95 kPa, w2 = 0.5 | 2.77802
260.25 K, 204 kPa, w2 = 0.4 | 6.70606
260.39 K, 282.8 kPa, w2 = 0.5 | 8.73987
263.01 K, 137.7 kPa, w2 = 0.65 | 3.5955
263.01 K, 237 kPa, w2 = 0.65 | 6.3575
263.01 K, 308.7 kPa, w2 = 0.65 | 8.4537
263.02 K, 181 kPa, w2 = 0.65 | 4.781
263.04 K, 222.9 kPa, w2 = 0.55 | 6.3877
263.05 K, 128.9 kPa, w2 = 0.55 | 3.6124
263.05 K, 219.6 kPa, w2 = 0.6 | 6.0704
263.05 K, 286.9 kPa, w2 = 0.6 | 8.072
263.05 K, 291.1 kPa, w2 = 0.55 | 8.4935
263.06 K, 167.2 kPa, w2 = 0.6 | 4.5651
263.06 K, 169.8 kPa, w2 = 0.55 | 4.8035
263.06 K, 376.6 kPa, w2 = 0.55 | 11.2936
263.07 K, 371.3 kPa, w2 = 0.6 | 10.733
264.02 K, 234.6 kPa, w2 = 0.45 | 7.35423
264.02 K, 305.6 kPa, w2 = 0.45 | 9.80334
264.03 K, 136.3 kPa, w2 = 0.45 | 4.14766
264.03 K, 179.2 kPa, w2 = 0.45 | 5.52482
264.03 K, 395.1 kPa, w2 = 0.45 | 13.0578
264.05 K, 220.5 kPa, w2 = 0.4 | 7.15058
264.05 K, 288.1 kPa, w2 = 0.4 | 9.52478
264.06 K, 127.7 kPa, w2 = 0.4 | 4.02995
264.06 K, 168.1 kPa, w2 = 0.4 | 5.36802
264.06 K, 373.8 kPa, w2 = 0.4 | 12.6873
264.29 K, 216 kPa, w2 = 0.5 | 6.42237
264.29 K, 282.6 kPa, w2 = 0.5 | 8.55501
264.29 K, 367.3 kPa, w2 = 0.5 | 11.3955
264.3 K, 124.9 kPa, w2 = 0.5 | 3.61957
264.3 K, 164.5 kPa, w2 = 0.5 | 4.82138
266.99 K, 289.8 kPa, w2 = 0.65 | 7.7396
267.01 K, 221.7 kPa, w2 = 0.65 | 5.82
267.01 K, 375.8 kPa, w2 = 0.65 | 10.2907
267.02 K, 128.5 kPa, w2 = 0.65 | 3.2915
267.02 K, 169 kPa, w2 = 0.65 | 4.3767
267.04 K, 261.1 kPa, w2 = 0.55 | 7.4247
267.04 K, 340.3 kPa, w2 = 0.55 | 9.8728
267.05 K, 199.2 kPa, w2 = 0.55 | 5.5837
267.05 K, 438.6 kPa, w2 = 0.55 | 13.1279
267.07 K, 138.6 kPa, w2 = 0.6 | 3.6841
267.07 K, 151.4 kPa, w2 = 0.55 | 4.1987
267.07 K, 182.7 kPa, w2 = 0.6 | 4.8989
267.07 K, 239.8 kPa, w2 = 0.6 | 6.5142
267.07 K, 313.2 kPa, w2 = 0.6 | 8.6621
267.08 K, 405.7 kPa, w2 = 0.6 | 11.5178
267.95 K, 114.5 kPa, w2 = 0.4 | 3.5398
267.95 K, 150.8 kPa, w2 = 0.4 | 4.71519
267.95 K, 198.3 kPa, w2 = 0.4 | 6.28082
267.96 K, 259.7 kPa, w2 = 0.4 | 8.36602
268 K, 338.5 kPa, w2 = 0.4 | 11.1424
268.07 K, 437.9 kPa, w2 = 0.4 | 14.8381
268.15 K, 234.6 kPa, w2 = 0.45 | 7.16341
268.15 K, 306.8 kPa, w2 = 0.45 | 9.54198
268.15 K, 398.6 kPa, w2 = 0.45 | 12.7103
268.16 K, 135.7 kPa, w2 = 0.45 | 4.03719
268.16 K, 178.7 kPa, w2 = 0.45 | 5.37765
268.22 K, 133.2 kPa, w2 = 0.5 | 3.80047
268.23 K, 175.4 kPa, w2 = 0.5 | 5.06234
268.24 K, 230.4 kPa, w2 = 0.5 | 6.74301
268.24 K, 301.4 kPa, w2 = 0.5 | 8.98179
268.25 K, 391.6 kPa, w2 = 0.5 | 11.9637
270.98 K, 225.5 kPa, w2 = 0.55 | 6.2618
270.99 K, 171.5 kPa, w2 = 0.55 | 4.709
270.99 K, 295.2 kPa, w2 = 0.55 | 8.3263
270.99 K, 384.1 kPa, w2 = 0.55 | 11.0715
271.01 K, 493 kPa, w2 = 0.55 | 14.7211
271.03 K, 140.5 kPa, w2 = 0.65 | 3.5483
271.03 K, 242.2 kPa, w2 = 0.65 | 6.274
271.03 K, 316.1 kPa, w2 = 0.65 | 8.3428
271.04 K, 184.7 kPa, w2 = 0.65 | 4.7181
271.04 K, 466.5 kPa, w2 = 0.6 | 13.2292
271.05 K, 409.9 kPa, w2 = 0.65 | 11.0926
271.08 K, 361.5 kPa, w2 = 0.6 | 9.9474
271.1 K, 160.8 kPa, w2 = 0.6 | 4.2305
271.1 K, 211.6 kPa, w2 = 0.6 | 5.6254
271.1 K, 277.5 kPa, w2 = 0.6 | 7.4803
271.58 K, 526.1 kPa, w2 = 0.5 | 16.4345
271.6 K, 411.1 kPa, w2 = 0.5 | 12.337
271.62 K, 241.2 kPa, w2 = 0.5 | 6.95248
271.62 K, 316.5 kPa, w2 = 0.5 | 9.26115
271.64 K, 182.9 kPa, w2 = 0.5 | 5.21904
271.65 K, 138.7 kPa, w2 = 0.5 | 3.918
272.12 K, 507.5 kPa, w2 = 0.45 | 16.4006
272.13 K, 175.9 kPa, w2 = 0.45 | 5.20923
272.13 K, 231.2 kPa, w2 = 0.45 | 6.93891
272.13 K, 289.6 kPa, w2 = 0.4 | 9.21252
272.13 K, 302.5 kPa, w2 = 0.45 | 9.24297
272.13 K, 393.6 kPa, w2 = 0.45 | 12.3121
272.14 K, 127.8 kPa, w2 = 0.4 | 3.89783
272.14 K, 168.4 kPa, w2 = 0.4 | 5.19207
272.14 K, 221.2 kPa, w2 = 0.4 | 6.91602
